This is an account of results in PMC3448010 (Biochemistry, 2012).

For data set [1] the following is noted: cited from earlier work.
Data set [2] deals with T1, SULT2A1 (Homo sapiens, UniProt Q06520).
T1 sequence (Q06520 1-285): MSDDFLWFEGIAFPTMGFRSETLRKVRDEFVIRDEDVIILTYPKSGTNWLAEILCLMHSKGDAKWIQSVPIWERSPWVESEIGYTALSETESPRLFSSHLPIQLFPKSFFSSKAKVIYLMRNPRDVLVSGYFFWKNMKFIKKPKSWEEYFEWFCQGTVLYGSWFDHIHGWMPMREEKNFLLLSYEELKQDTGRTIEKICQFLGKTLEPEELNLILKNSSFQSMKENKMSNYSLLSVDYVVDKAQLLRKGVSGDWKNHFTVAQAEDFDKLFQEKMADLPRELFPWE
In words: Initial-rate kinetics of raloxifene and DHEA sulfation. The following applies: for Kia: co-substrate extrapolated to zero; for Km: 25 °C, pH 7.4, sequential Bi-Bi fit.

For data set [3], the target named is T1, SULT2A1. The data set can be described thus: Presteady state.
The target in data set [4] is T1, SULT2A1. In words: Equilibrium ligand binding monitored by intrinsic enzyme fluorescence.
In data set [5] the target is T1, SULT2A1. The conditions noted are these: read-out: typical Km; cited from earlier work.

SMILES strings stand for the structures. “And” between values parts separate entries of the source, which are not always exact repeats. Identical values can stand only once. Like-named read-outs stand apart in the source and are kept apart here. Where only a bound is given, the exact number is not on record here.

Take `C[C@]12CC[C@H](O)CC1=CC[C@@H]1[C@@H]2CC[C@]2(C)C(=O)CC[C@@H]12` [DHEA, 5-dehydroepiandrosterone]: the sulfated in-vivo in data set [1] was greater than 99%. Further, the “kcat/Km relative to raloxifene” value at SULT2A1 [2] (DHEA vs raloxifene) came to 135 fold. At SULT2A1 [2] (DHEA/PAPS substrate pair), the Kia is on record as 1.8 (0.1) μM. Moreover, at SULT2A1 [2] (from kinetic constants), the “positive synergy in the interaction with PAPS” value is 1.4 fold. For the same compound, the Kd at SULT2A1 [3] worked out at 1100 nM; on SULT2A1 [4] (Kd, enzyme species E· (unliganded)), 1000 nM; on SULT2A1 [4] (Kd, enzyme species PAP·E·, global fit of titrations at five PAP concentrations) it was 1100 nM. The koff at SULT2A1 [3] (enzyme species E· (unliganded)) was determined as 2.1 s⁻¹; on SULT2A1 [3] (enzyme species PAPS·E·), 3 s⁻¹. On SULT2A1 [4] (global fit, five PAP concentrations), the “synergy between PAP and acceptor” value is recorded as 1.1 (± 0.2).

On to `Nc1ncnc2c1ncn2[C@@H]1O[C@H](COP(=O)(O)O)[C@@H](OP(=O)(O)O)[C@H]1O` [PAP, 3′, 5′-diphosphoadenosine], for which the Kd worked out at 210 nM at SULT2A1 [4] (Kd, enzyme species DHEA·E·) and 6000 nM at SULT2A1 [4] (Kd, enzyme species Ral·E·).

Take `Nc1ncnc2c1ncn2[C@@H]1O[C@H](COP(=O)(O)OS(=O)(=O)O)[C@@H](OP(=O)(O)O)[C@H]1O` [PAPS, 3′-phosphoadenosine 5′-phosphosulfate]: the Km is roughly 300 nM at SULT2A1 [5], 0.39 µM on SULT2A1 [2] (DHEA/PAPS substrate pair) and 5.9 µM on SULT2A1 [2] (RAL/PAPS substrate pair). For the same compound, the kcat on SULT2A1 [2] (DHEA/PAPS substrate pair) is 0.7 (0.03) sec^−1; at SULT2A1 [2] (RAL/PAPS substrate pair) it was 0.10 (0.01) sec^−1. Besides, the results for the Kia at SULT2A1 [2] (DHEA/PAPS substrate pair) and at SULT2A1 [2] (RAL/PAPS substrate pair) were 0.47 (0.06) μM and 0.24 (0.04) μM, respectively. The koff on SULT2A1 [3] (enzyme species DHEA·E·) was 2.1 s^−1 and 1.9 (0.2) s^−1; on SULT2A1 [3] (enzyme species E· (unliganded)) it was 2.1 s^−1 and 2.3 (0.3) s^−1; on SULT2A1 [3] (enzyme species RAL·E·, raloxifene 50 μM), 50 (2) s^−1. Also, at SULT2A1 [3] (off-rate constants), the “faster escape from PAPS·E·raloxifene than from PAPS·E and PAPS·E·DHEA” value is on record as 24 fold. For the same compound, the “weakening in PAPS affinity with raloxifene bound” value at SULT2A1 [3] (raloxifene prevents gate closure) stood at 21 fold. In addition, the Kd was 240 nM at SULT2A1 [3] (read-out: Kd (koff/kon), enzyme species DHEA·E·); 270 nM at SULT2A1 [3] (read-out: Kd (koff/kon), enzyme species E· (unliganded)); 6000 nM on SULT2A1 [3] (read-out: Kd (koff/kon), enzyme species RAL·E·, raloxifene 50 μM); 280 nM at SULT2A1 [4] (enzyme species E· (unliganded)).
